In ChEMBL document CHEMBL4422678, “Design and synthesis of novel dual-cyclic RGD peptides for αvβ3 integrin targeting” (Bioorg Med Chem Lett, 2019):
Active and inactive are the calls of the source. No cut-off for these calls is given here. *1 amine or outer side, *2 acyl side, *3 side chain or, on linkers, in order; H or OH if unused. Where a SMILES comes first, the peptide text is derived from it. [ ]: non-standard residue; d: D form. The star is where a group is joined. Dolaproine = CO[C@@H]([C@@H]1CCCN1)[C@@H](C)C(=O)O; X1 = O=C(CCCCC(=O)*)N1Cc2ccccc2C#Cc2ccccc21; Dil = CC[C@H](C)[C@H](NC)[C@@H](CC(=O)O)OC; PABC = O=C(OCc1ccc(N[*:1])cc1)[*:2]; X2 = C[C@@H](N*)[C@@H](O)c1ccccc1; NMeV = CN[C@H](C(=O)O)C(C)C

Experiments:
Integrin alpha-V/beta-3 [1] = molecular target: T1, Integrin alpha-V/beta-3 (Homo sapiens, UniProt P05106+P06756); assay: Binding affinity to alphaVbeta3 integrin in human SKOV3 cells at 200 uM incubated for 3 hrs followed by compound washout prior to DBCO-Cy5 addition and measured after 1 hr by DAPI staining based fluorescence microscopic analysis; format: cell-based
Integrin alpha-V/beta-3 [2] = molecular target: T1, Integrin alpha-V/beta-3; assay: Binding affinity to alphaVbeta3 integrin in human SKOV3 cells assessed as inhibition of cell adhesion to fibrinogen measured after 2 hrs by MTT assay; format: cell-based
Target sequence in this assay (P05106 27-788 limits assumed): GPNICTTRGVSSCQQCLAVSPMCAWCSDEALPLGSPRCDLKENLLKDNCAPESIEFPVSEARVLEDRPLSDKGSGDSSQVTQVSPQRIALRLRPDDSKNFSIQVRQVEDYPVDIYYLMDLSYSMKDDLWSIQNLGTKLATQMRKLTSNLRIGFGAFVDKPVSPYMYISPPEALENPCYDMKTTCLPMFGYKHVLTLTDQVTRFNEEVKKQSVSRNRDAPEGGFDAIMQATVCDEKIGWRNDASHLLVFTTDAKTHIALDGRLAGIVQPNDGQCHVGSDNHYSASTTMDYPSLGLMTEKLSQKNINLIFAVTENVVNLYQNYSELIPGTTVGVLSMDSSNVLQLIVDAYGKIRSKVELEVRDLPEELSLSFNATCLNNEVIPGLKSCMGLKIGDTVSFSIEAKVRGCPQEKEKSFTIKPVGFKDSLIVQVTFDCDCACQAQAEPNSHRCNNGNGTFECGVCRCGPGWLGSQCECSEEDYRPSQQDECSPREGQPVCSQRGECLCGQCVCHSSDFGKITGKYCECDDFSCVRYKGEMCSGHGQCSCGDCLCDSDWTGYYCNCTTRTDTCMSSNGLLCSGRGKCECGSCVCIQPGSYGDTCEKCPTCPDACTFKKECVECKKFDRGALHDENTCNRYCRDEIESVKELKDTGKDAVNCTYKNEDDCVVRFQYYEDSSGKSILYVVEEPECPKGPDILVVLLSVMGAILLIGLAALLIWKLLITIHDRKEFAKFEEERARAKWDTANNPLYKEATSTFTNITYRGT
Target sequence in this assay (P06756 31-889 limits assumed): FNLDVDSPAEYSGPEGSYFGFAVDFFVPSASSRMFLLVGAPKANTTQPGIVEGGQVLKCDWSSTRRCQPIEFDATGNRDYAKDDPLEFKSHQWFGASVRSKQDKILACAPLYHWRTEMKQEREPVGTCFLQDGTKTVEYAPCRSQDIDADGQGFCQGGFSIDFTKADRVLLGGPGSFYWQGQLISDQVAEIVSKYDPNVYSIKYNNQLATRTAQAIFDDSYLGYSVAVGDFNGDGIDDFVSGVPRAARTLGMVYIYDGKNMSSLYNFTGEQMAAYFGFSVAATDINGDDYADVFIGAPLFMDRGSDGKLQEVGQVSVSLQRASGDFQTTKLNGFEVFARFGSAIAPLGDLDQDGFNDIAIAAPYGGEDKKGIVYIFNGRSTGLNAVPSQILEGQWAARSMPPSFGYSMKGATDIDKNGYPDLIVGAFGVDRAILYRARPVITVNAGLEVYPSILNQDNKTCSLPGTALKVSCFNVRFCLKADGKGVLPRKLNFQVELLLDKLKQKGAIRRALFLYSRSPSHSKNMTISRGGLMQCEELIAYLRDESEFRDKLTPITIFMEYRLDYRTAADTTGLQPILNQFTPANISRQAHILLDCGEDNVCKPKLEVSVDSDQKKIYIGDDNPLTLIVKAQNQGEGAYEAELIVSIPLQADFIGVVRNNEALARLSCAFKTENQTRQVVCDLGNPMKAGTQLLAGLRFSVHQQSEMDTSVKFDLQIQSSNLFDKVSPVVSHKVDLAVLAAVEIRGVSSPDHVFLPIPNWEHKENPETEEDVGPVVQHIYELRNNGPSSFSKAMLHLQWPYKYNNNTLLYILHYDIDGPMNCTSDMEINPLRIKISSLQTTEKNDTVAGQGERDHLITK
Target sequence in this assay (P06756 891-1048 limits assumed): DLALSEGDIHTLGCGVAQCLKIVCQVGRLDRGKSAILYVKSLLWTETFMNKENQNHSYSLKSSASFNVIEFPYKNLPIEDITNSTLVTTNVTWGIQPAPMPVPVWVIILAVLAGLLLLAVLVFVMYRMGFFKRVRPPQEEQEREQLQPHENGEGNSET

MCF7 [3] = assay: Cytotoxicity against human MCF7 cells assessed as inhibition of cell growth at 0.0004 uM after 72 hrs by CCK8 assay; format: functional; conditions: MCF7, 72 h, read-out: GI
SK-OV-3 [4] = assay: Cytotoxicity against human SKOV3 cells assessed as inhibition of cell growth at 0.0004 uM after 72 hrs by CCK8 assay; format: functional; conditions: SK-OV-3, 72 h, read-out: GI
MCF7 [5] = assay: Cytotoxicity against human MCF7 cells assessed as inhibition of cell growth at 40 uM after 72 hrs by CCK8 assay; format: functional; conditions: MCF7, 72 h, read-out: GI
SK-OV-3 [6] = assay: Cytotoxicity against human SKOV3 cells assessed as inhibition of cell growth at 0.4 uM after 72 hrs by CCK8 assay; format: functional; conditions: SK-OV-3, 72 h, read-out: GI
MCF7 [7] = assay: Cytotoxicity against human MCF7 cells assessed as inhibition of cell growth at 0.04 uM after 72 hrs by CCK8 assay; format: functional; conditions: MCF7, 72 h, read-out: GI
SK-OV-3 [8] = assay: Cytotoxicity against human SKOV3 cells assessed as inhibition of cell growth at 400 uM after 72 hrs by CCK8 assay; format: functional; conditions: SK-OV-3, 72 h, read-out: GI
SK-OV-3 [9] = assay: Cytotoxicity against human SKOV3 cells assessed as inhibition of cell growth at 0.004 uM after 72 hrs by CCK8 assay; format: functional; conditions: SK-OV-3, 72 h, read-out: GI
SK-OV-3 [10] = assay: Cytotoxicity against human SKOV3 cells assessed as inhibition of cell growth at 0.04 uM after 72 hrs by CCK8 assay; format: functional; conditions: SK-OV-3, 72 h, read-out: GI
SK-OV-3 [11] = assay: Cytotoxicity against human SKOV3 cells assessed as inhibition of cell growth at 4 uM after 72 hrs by CCK8 assay; format: functional; conditions: SK-OV-3, 72 h, read-out: GI
MCF7 [12] = assay: Cytotoxicity against human MCF7 cells assessed as inhibition of cell growth at 0.004 uM after 72 hrs by CCK8 assay; format: functional; conditions: MCF7, 72 h, read-out: GI
MCF7 [13] = assay: Cytotoxicity against human MCF7 cells assessed as inhibition of cell growth at 400 uM after 72 hrs by CCK8 assay; format: functional; conditions: MCF7, 72 h, read-out: GI
MCF7 [14] = assay: Cytotoxicity against human MCF7 cells assessed as inhibition of cell growth at 0.4 uM after 72 hrs by CCK8 assay; format: functional; conditions: MCF7, 72 h, read-out: GI
SK-OV-3 [15] = assay: Cytotoxicity against human SKOV3 cells assessed as inhibition of cell growth at 40 uM after 72 hrs by CCK8 assay; format: functional; conditions: SK-OV-3, 72 h, read-out: GI
MCF7 [16] = assay: Cytotoxicity against human MCF7 cells assessed as inhibition of cell growth at 4 uM after 72 hrs by CCK8 assay; format: functional; conditions: MCF7, 72 h, read-out: GI
MCF7 [17] = assay: Cytotoxicity against human MCF7 cells assessed as inhibition of cell growth after 72 hrs by CCK8 assay; format: functional, cell-based; conditions: MCF7, 72 h
SK-OV-3 [18] = assay: Cytotoxicity against human SKOV3 cells assessed as inhibition of cell growth after 72 hrs by CCK8 assay; format: functional, cell-based; conditions: SK-OV-3, 72 h

**Q.** For `[N-]=[N+]=NCCCC(=O)N[C@@H](CCCNC(=N)N)C(=O)NCC(=O)N[C@@H](CC(=O)O)C(=O)N[C@@H](CCCNC(=N)N)C(=O)NCC(=O)N[C@@H](CC(=O)N[C@H]1CSSC[C@@H](C(=O)O)NC(=O)[C@H](CC(=O)O)NC(=O)CNC(=O)[C@H](CCCNC(=N)N)NC(=O)[C@H](CC(=O)O)NC(=O)CNC(=O)[C@H](CCCNC(=N)N)NC1=O)C(=O)NCCCC[C@@H]1NC(=O)[C@H](Cc2ccccc2)NC(=O)[C@H](CC(=O)O)NC(=O)CNC(=O)[C@H](CCCN=C(N)N)NC1=O`, which Activity (Integrin alpha-V/beta-3 [1]) is on record?
**A.** Active

**Q.** What about the IC50 (Integrin alpha-V/beta-3 [2]) of the same molecule?
**A.** 4.2 µM

**Q.** Which inhibition of growth at 0.0004 µM (MCF7 [3]) does the source give for `[N-]=[N+]=NCCCC(=O)N[C@@H](CCCNC(=N)N)C(=O)NCC(=O)N[C@@H](CC(=O)N[C@H]1CSSC[C@@H](C(=O)O)NC(=O)[C@H](CC(=O)O)NC(=O)CNC(=O)[C@H](CCCNC(=N)N)NC(=O)[C@H](CC(=O)O)NC(=O)CNC(=O)[C@H](CCCNC(=N)N)NC1=O)C(=O)N[C@@H](CCCNC(=N)N)C(=O)NCC(=O)N[C@@H](CC(=O)O)C(=O)NCCCC[C@@H]1NC(=O)[C@H](Cc2ccccc2)NC(=O)[C@H](CC(=O)O)NC(=O)CNC(=O)[C@H](CCCN=C(N)N)NC1=O` here?
**A.** 18.3%

**Q.** And the inhibition of growth at 0.0004 µM (SK-OV-3 [4])?
**A.** 13.1%

**Q.** And the inhibition of growth at 40 µM (MCF7 [5])?
**A.** 23.8%

**Q.** What about the inhibition of growth at 0.4 µM (SK-OV-3 [6]) of the same molecule?
**A.** 15.4%

**Q.** What about the inhibition of growth at 0.04 µM (MCF7 [7]) of the same molecule?
**A.** 17.5%

**Q.** What about the inhibition of growth at 400 µM (SK-OV-3 [8]) of the same molecule?
**A.** 28.8%

**Q.** What about the inhibition of growth at 0.004 µM (SK-OV-3 [9]) of the same molecule?
**A.** 19.5%

**Q.** And the inhibition of growth at 0.04 µM (SK-OV-3 [10])?
**A.** 14.4%

**Q.** What about the inhibition of growth at 4 µM (SK-OV-3 [11]) of the same molecule?
**A.** 23.9%

**Q.** And the inhibition of growth at 0.004 µM (MCF7 [12])?
**A.** 13.4%

**Q.** And the inhibition of growth at 400 µM (MCF7 [13])?
**A.** 30.2%

**Q.** And the inhibition of growth at 0.4 µM (MCF7 [14])?
**A.** 17.6%

**Q.** What about the inhibition of growth at 40 µM (SK-OV-3 [15]) of the same molecule?
**A.** 28.1%

**Q.** And the IC50 (Integrin alpha-V/beta-3 [2])?
**A.** 2.13 µM

**Q.** What about the inhibition of growth at 4 µM (MCF7 [16]) of the same molecule?
**A.** 22.6%

**Q.** How did the IC50 (MCF7 [17]) turn out when `CC[C@H](C)[C@@H]([C@@H](CC(=O)N1CCC[C@H]1[C@H](OC)[C@@H](C)C(=O)N[C@H](C)[C@@H](O)c1ccccc1)OC)N(C)C(=O)[C@@H](NC(=O)[C@H](C(C)C)N(C)C(=O)OCc1ccc(NC(=O)[C@H](CCCNC(=N)N)NC(=O)[C@@H](NC(=O)CCCCC(=O)N2Cc3ccccc3-c3nnn(CCCC(=O)N[C@@H](CCCNC(=N)N)C(=O)NCC(=O)N[C@@H](CC(=O)O)C(=O)N[C@@H](CCCNC(=N)N)C(=O)NCC(=O)N[C@@H](CC(=O)N[C@H]4CSSC[C@@H](C(=O)O)NC(=O)[C@H](CC(=O)O)NC(=O)CNC(=O)[C@H](CCCNC(=N)N)NC(=O)[C@H](CC(=O)O)NC(=O)CNC(=O)[C@H](CCCNC(=N)N)NC4=O)C(=O)NCCCC[C@@H]4NC(=O)[C@H](Cc5ccccc5)NC(=O)[C@H](CC(=O)O)NC(=O)CNC(=O)[C@H](CCCN=C(N)N)NC4=O)c3-c3ccccc32)C(C)C)cc1)C(C)C` was run?
**A.** 19.9 µM

**Q.** And the IC50 (SK-OV-3 [18])?
**A.** 0.44 µM

**Q.** For `[N-]=[N+]=NCCCC(=O)N[C@@H](CCCNC(=N)N)C(=O)NCC(=O)N[C@@H](CC(=O)O)C(=O)N[C@@H](CCCNC(=N)N)C(=O)NCC(=O)N[C@@H](CC(=O)O)C(=O)NCCCC[C@@H]1NC(=O)[C@H](Cc2ccccc2)NC(=O)[C@H](CC(=O)O)NC(=O)CNC(=O)[C@H](CCCN=C(N)N)NC1=O`, which IC50 (Integrin alpha-V/beta-3 [2]) is on record?
**A.** 25.1 µM

**Q.** With `[N-]=[N+]=NCCCC(=O)NCCCC[C@@H]1NC(=O)[C@H](Cc2ccccc2)NC(=O)[C@H](CC(=O)O)NC(=O)CNC(=O)[C@H](CCCN=C(N)N)NC1=O` as the molecule, how does the IC50 (Integrin alpha-V/beta-3 [2]) read?
**A.** 110 µM

**Q.** Which results are given for `CC[C@H](C)[C@@H]([C@@H](CC(=O)N1CCC[C@H]1[C@H](OC)[C@@H](C)C(=O)N[C@H](C)[C@@H](O)c1ccccc1)OC)N(C)C(=O)[C@@H](NC(=O)[C@H](C(C)C)N(C)C(=O)OCc1ccc(NC(=O)[C@H](CCCNC(=N)N)NC(=O)[C@@H](NC(=O)CCCCC(=O)N2Cc3ccccc3C#Cc3ccccc32)C(C)C)cc1)C(C)C` (X1-VR[PABC][NMeV]V[Dil][Dolaproine]-X2)?
**A.** IC50 (MCF7 [17]): 22.3 µM; IC50 (SK-OV-3 [18]): 1 µM

**Q.** With `[N-]=[N+]=NCCCC(=O)N[C@@H](CCCNC(=N)N)C(=O)NCC(=O)N[C@@H](CC(=O)O)C(=O)N[C@@H](CCCNC(=N)N)C(=O)NCC(=O)N[C@@H](CC(=O)NCCCC[C@@H]1NC(=O)[C@H](Cc2ccccc2)NC(=O)[C@H](CC(=O)O)NC(=O)CNC(=O)[C@H](CCCN=C(N)N)NC1=O)C(=O)NCCCC[C@@H]1NC(=O)[C@H](Cc2ccccc2)NC(=O)[C@H](CC(=O)O)NC(=O)CNC(=O)[C@H](CCCN=C(N)N)NC1=O` as the molecule, how does the IC50 (Integrin alpha-V/beta-3 [2]) read?
**A.** 8.9 µM

**Q.** With `CC[C@H](C)[C@@H]([C@@H](CC(=O)N1CCC[C@H]1[C@H](OC)[C@@H](C)C(=O)N[C@H](C)[C@@H](O)c1ccccc1)OC)N(C)C(=O)[C@@H](NC(=O)[C@H](C(C)C)N(C)C(=O)OCc1ccc(NC(=O)[C@H](CCCNC(=N)N)NC(=O)[C@@H](NC(=O)CCCCC(=O)N2Cc3ccccc3-c3nnn(CCCC(=O)NCCCC[C@@H]4NC(=O)[C@H](Cc5ccccc5)NC(=O)[C@H](CC(=O)O)NC(=O)CNC(=O)[C@H](CCCN=C(N)N)NC4=O)c3-c3ccccc32)C(C)C)cc1)C(C)C` as the molecule, how does the IC50 (MCF7 [17]) read?
**A.** 93.2 µM

**Q.** And the IC50 (SK-OV-3 [18])?
**A.** 4.5 µM

**Q.** With `[N-]=[N+]=NCCCC(=O)N[C@@H](CCCNC(=N)N)C(=O)NCC(=O)N[C@@H](CC(=O)N[C@H]1CSSC[C@@H](C(=O)O)NC(=O)[C@H](CC(=O)O)NC(=O)CNC(=O)[C@H](CCCNC(=N)N)NC(=O)[C@H](CC(=O)O)NC(=O)CNC(=O)[C@H](CCCNC(=N)N)NC1=O)C(=O)N[C@@H](CCCNC(=N)N)C(=O)NCC(=O)N[C@@H](CC(=O)O)C(=O)N[C@@H](CCCNC(=N)N)C(=O)NCC(=O)N[C@@H](CC(=O)O)C(=O)NCCCC[C@@H]1NC(=O)[C@H](Cc2ccccc2)NC(=O)[C@H](CC(=O)O)NC(=O)CNC(=O)[C@H](CCCN=C(N)N)NC1=O` as the molecule, how does the IC50 (Integrin alpha-V/beta-3 [2]) read?
**A.** 24.5 µM
